Earlier results, collected in patent US20260294906A1, “TREATING PSORIASIS USING A SMALL MOLECULE INHIBITOR OF TUMOR NECROSIS FACTOR ALPHA” (SANOFI, priority 2023, published 2026).

What was measured:
sTNFα = settings: O'Connell et al.; cited from earlier work
TNFR1 = settings: Jurkat cells; sTNFα pre-incubated with the substance, compared with sTNFα alone; cited from earlier work

| Compound | stabilization of the asymmetric sTNFα trimer (sTNFα) | TNFR1 signaling (RIP-1 ubiquitination and NF-κB phosphorylation) (TNFR1) |
| --- | --- | --- |
| Cc1ccc(C)c(Cn2c(C(O)c3ccncc3)nc3ccc(-c4cnn(C)c4)cc32)c1 (stereo not drawn) [UCB-9260, reference compound] | stabilizes the asymmetric sTNFα trimer | impaired |
| etanercept | – | impaired |
